The values below come from patent US11999676B2, “Vesicular monoamine transporter-2 ligands and their use in the treatment of psychostimulant abuse” (priority 2016, dated 2024).

For data set [1], the target named is T1, VMAT2 (Rattus norvegicus (Rat), UniProt Q01827). Briefly: [3H]Dopamine ([3H]DA) uptake assay, vesicular preparation. Type of data set: biochemical.
Data set [2] has as its target hERG channel (selectivity at VMAT2 over hERG) (Homo sapiens (Human), UniProt Q12809). Briefly: [3H]Dofetilide binding assay, HEK-293 cell membrane preparation. The settings on record: human, pH 7.4.
The target of data set [3] is dopamine transporter (DAT) (Rattus norvegicus (Rat), UniProt P23977). Kind of data set: [3H]DA uptake assay, synaptosomal preparation. Type of data set: biochemical. The protocol:
(§1) [^3H]DA and [^3H]5-HT uptake into striatal synaptosomes was determined to evaluate compound inhibition of the dopamine transporter (DAT) and the serotonin transporter (SERT), respectively.

Data set [4] addresses serotonin transporter (SERT) (Rattus norvegicus (Rat), UniProt P31652). Briefly: [3H]5-HT uptake assay, synaptosomal preparation. Type of data set: biochemical. The protocol:
as §1

A further data set has as its system rats. Kind of data set: METH-stimulated locomotor activity in rats. It counts as in vivo, rat. The settings on record: s.c.
The target in data set [5] is T1, VMAT2. The settings on record: rat brain vesicles; read-out: inhibition of [3H]DA uptake into rat brain vesicles via VMAT2 (Ki); cited from earlier work.
The next data set concerns rat striatal slices. The note with it: cited from earlier work.
The conditions of data set [6]: in vivo; cited from earlier work.
Where [7] appears, read: [3H]DA uptake (Ki) VMAT2, rat striatal synaptic vesicles.

Like-named read-outs stand apart in the source and are kept apart here.

Sequence of hERG channel (selectivity at VMAT2 over hERG) (Q12809 whole entry): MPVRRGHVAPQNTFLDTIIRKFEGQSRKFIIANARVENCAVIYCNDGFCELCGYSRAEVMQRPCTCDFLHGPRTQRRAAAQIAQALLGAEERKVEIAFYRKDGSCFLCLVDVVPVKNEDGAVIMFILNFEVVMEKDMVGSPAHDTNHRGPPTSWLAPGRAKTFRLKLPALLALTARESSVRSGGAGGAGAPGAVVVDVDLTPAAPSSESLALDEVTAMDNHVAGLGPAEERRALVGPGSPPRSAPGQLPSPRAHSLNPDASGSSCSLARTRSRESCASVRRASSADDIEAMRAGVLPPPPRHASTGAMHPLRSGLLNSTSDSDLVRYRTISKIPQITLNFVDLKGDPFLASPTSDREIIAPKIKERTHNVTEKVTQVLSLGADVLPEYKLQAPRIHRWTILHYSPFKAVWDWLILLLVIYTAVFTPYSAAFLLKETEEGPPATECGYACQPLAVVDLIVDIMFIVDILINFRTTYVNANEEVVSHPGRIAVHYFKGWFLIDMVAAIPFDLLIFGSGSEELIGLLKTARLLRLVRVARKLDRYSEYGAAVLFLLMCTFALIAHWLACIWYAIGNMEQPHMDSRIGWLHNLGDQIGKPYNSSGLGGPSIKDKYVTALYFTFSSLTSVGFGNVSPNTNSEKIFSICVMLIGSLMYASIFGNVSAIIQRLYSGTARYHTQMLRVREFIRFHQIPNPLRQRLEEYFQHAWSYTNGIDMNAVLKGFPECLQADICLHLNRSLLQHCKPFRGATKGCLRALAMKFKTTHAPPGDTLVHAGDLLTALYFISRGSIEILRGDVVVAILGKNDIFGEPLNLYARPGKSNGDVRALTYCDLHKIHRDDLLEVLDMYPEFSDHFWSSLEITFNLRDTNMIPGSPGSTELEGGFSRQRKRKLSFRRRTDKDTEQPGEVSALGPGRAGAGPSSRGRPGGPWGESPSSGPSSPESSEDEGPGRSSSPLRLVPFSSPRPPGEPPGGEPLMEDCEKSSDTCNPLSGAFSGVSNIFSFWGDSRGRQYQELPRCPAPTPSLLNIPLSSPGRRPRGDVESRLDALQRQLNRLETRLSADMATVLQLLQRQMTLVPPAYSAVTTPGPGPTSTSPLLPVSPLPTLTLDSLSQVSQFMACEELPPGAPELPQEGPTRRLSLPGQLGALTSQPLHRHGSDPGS

As for `COc1ccc(CCCN[C@H](C)Cc2ccccc2)cc1.Cl` [Compound 9], the Ki worked out at 8.71 ± 3.65 nM on VMAT2 [1] (Ki value at VMAT2, text value) and 8.7 ± 6.5 nM on VMAT2 [1] (setting [7]). Also, in data set [2], the selectivity ratio at 1 hr is > 30. The “selectivity at VMAT2 over DAT” value in data set [3] was > 30 fold. In addition, the “selectivity at VMAT2 over SERT” value in data set [4] was > 30 fold. Besides, the METH-stimulated locomotor activity entry in the data set on rats (3 mg/kg) is “significant reduction”.
In the case of `COc1ccc(CCCN[C@@H](C)Cc2ccccc2)cc1.Cl` [Compound 10], the Ki on VMAT2 [1] (Ki value at VMAT2, text value) was 25.5 ± 3.57 nM; on VMAT2 [1] (setting [7]), 26 ± 3.6 nM. Besides, the selectivity ratio at 1 hr in data set [2] is > 30. In addition, the “selectivity at VMAT2 over DAT” value in data set [3] is reported as > 30 fold. The “selectivity at VMAT2 over SERT” value in data set [4] is on record as > 30 fold. The METH-stimulated locomotor activity result with rats (17 mg/kg) is reported as “significant reduction”.
Turning to `c1ccc(CC[C@H]2CCC[C@@H](CCc3ccccc3)N2)cc1` [Nor-Lobelane], the inhibitory constant (Ki) at VMAT2 [5] is 44 nM.
With `CN1[C@@H](CCc2ccccc2)CCC[C@H]1CCc1ccccc1` [Lobelane], in the data set on rat striatal slices, the “METH-evoked DA overflow” value was “decreases”. The METH self-administration entry in data set [6] is given as “decreases”.
